The numbers were not newly measured in patent US9125916B2, “Methods of treating hypertrophic cardiomyopathy” (Gilead Sciences, Inc., priority 2013, dated 2015), which cites them from elsewhere.

For the data set, the system named is human cardiac tissue derived from patients with symptomatic HCM. The conditions noted are these: Circulation 2013, 127 (5):575-584.

For `COc1ccccc1OCC(O)CN1CCN(CC(=O)Nc2c(C)cccc2C)CC1` (stereo not shown) [ranolazine], the “effect of inhibition of late INa on electrical and mechanical abnormalities characteristic of HCM” value was “reverse multiple electrical and mechanical abnormalities characteristic of the disease”.
